Our source for the IC50 and inhibition values is patent publication US10501449B2 (priority 2018, dated 2019).

Molecules are shown by their SMILES. Where two headings read alike, the source gives them in different places.

Series [1] addresses T1, hROMK (human Kir1.1) (Homo sapiens (Human), UniProt P48048). Put plainly: cell-based. As to conditions: CHO T-Rex hROMK stable cell line; thallium flux; 10-point concentration response curve; read-out: Human ROMK Th Flux IC50.
Protocol: Solutions and reagents: Thallium flux assay was performed using FluxOR kit (F10017, Life Technologies). Loading buffer, assay buffer and stimulus buffer were prepared using kit components. HBSS (Hank's balanced salt solution, Cat#14025-092) was purchased separately from Life Technologies.
To prepare 10 ml of loading buffer: 10 μl of FluxOR dye (reconstituted in DMSO) was first added to 100 μl of powerload concentrate and this mix along with 100 μl of Probenicid (100×) was then added to 9.79 ml of HBSS. Assay buffer (10 ml) was prepared by addition of 2 ml of FluxOR chloride free buffer (5×), 100 μl of Probenicid (100×), and 0.2 ml of Ouabain (13.77 mM) to 7.7 ml of deionized water. Stimulus buffer was composed of 15 mM Tl2SO4, 0.75 mM K2SO4 in FluxOR chloride free buffer (diluted to 1× using deionized water). The final concentration of Tl2SO4 and K2SO4 in the assay plate was 3 mM and 0.15 mM, respectively.
Plating and induction of cells: The CHO T-Rex hROMK (human Kir1.1) stable cell line was maintained in Ham's F12 media supplemented with 10% FBS, 1% Penicillin-Streptomycin, 500 μg/ml Zeocin and 10 μg/ml Blasticidin at 37° C. in a 5% CO2 incubator. One day before the experiment, the cells were dissociated by incubation with Versene solution (15040-066, Life Technologies) for 10 minutes at 37° C. followed by addition of growth media. The cell suspension was centrifuged at 1200 rpm for 5 min. After discarding the supernatant, the cells were resuspended in fresh growth media and cell concentration was determined using a hemocytometer. Next, 0.5 μg/ml of Doxycycline was added to the cell suspension to induce hROMK channel expression and 50 μl (10,000 cells/well) of cell suspension was added to each well of a poly-D lysine coated 384 well black, optically clear bottom plate (6007718, Perkin Elmer). The assay plate was kept at 37° C. in a 5% CO2 incubator.
Assay protocol: On the day of experiment, media was removed and loading buffer was added (30 μl/well) to the assay plate. The cells were incubated in the loading buffer for 30 minutes at 37° C. The loading buffer was then replaced by assay buffer (30 μl/well) followed by addition of test compounds or controls. The cells were incubated with compounds for 30 minutes and the plate was then mounted on FlexStation (Molecular Devices) for fluorescence read out with excitation and emission wavelengths at 488 and 525 nm, respectively. Each well was read for 90 sec at 2 sec interval and the stimulus buffer was added after 20 seconds of baseline recording. The final DMSO concentration was either 0.5 or 1% in the assay plate. Positive and negative controls were defined by addition of DMSO or 3 μM of a standard ROMK inhibitor, respectively, to the wells instead of a test compound.
A 10-point concentration response curve was used to estimate the IC50 value of test compounds.
Series [2] addresses T1, hROMK (human Kir1.1). Put plainly: cell-based. As to conditions: whole-cell manual patch clamp, CHO T-Rex hROMK stable cell line, voltage step to -120 mV, Ba2+-subtracted hROMK current; read-out: ROMK EP IC50. Type of series: cell-based. Background: The patch-clamp technique gives a direct electrical read-out from membranes.
Protocol: ROMK Manual Patch Clamp Assay
Cell culture conditions: Cells were maintained in conditions similar to those for Thallium flux assay. hROMK channel expression was induced by adding 0.6 μg/ml of Doxycycline 16-24 hrs prior to the experiments. On the day of experiment, the cells were dissociated using Versene, resuspended in growth media and plated onto coverslips 15 minutes prior to use.
Electrophysiology: The coverslip plated with cells was placed in the experiment chamber perfused with bath solution composed of (in mM): 135 NaCl, 5 KCl, 2 CaCl2, 1 MgCl2, 10 HEPES, 5 Glucose (pH 7.4). Patch pipettes with resistance between 2-5 Megaohms, when filled with a solution containing (in mM): 135 KCl, 1 EGTA, 1 MgCl2, 10 HEPES, 2 Na2ATP (pH 7.3), were used to form gigaseals. The cells were voltage clamped at −75 mV in whole-cell configuration using an Axopatch 200b or Multiclamp 700b (Molecular Devices) amplifier controlled by pClamp Software (Molecular Devices). The current was recorded by applying a voltage step to −120 mV every 10 seconds. […] At the end of the experiment, the cells were perfused with bath solution containing 2 mM Ba^2+ to isolate the contribution of hROMK current.
Data analysis: Raw current values (5 traces each for control, different compound concentration and Ba^2+ treatment groups) were exported from Clampfit into Microsoft Excel where the current remaining after application of Ba^2+ was subtracted from raw current to obtain hROMK specific current.
The next series concerns the target hERG channels (Homo sapiens (Human), UniProt Q12809). Put plainly: hERG Manual Patch Clamp Assay. It counts as cell-based. To be noted: human, HEK 293 cells stably expressing hERG channels, pH 7.4, 1 uM, read-out: hERG EP % Inh @ 1 uM. In general terms: hERG is a cardiac potassium channel; its block is linked to QT prolongation.

Sequence of hERG channels (Q12809 whole entry): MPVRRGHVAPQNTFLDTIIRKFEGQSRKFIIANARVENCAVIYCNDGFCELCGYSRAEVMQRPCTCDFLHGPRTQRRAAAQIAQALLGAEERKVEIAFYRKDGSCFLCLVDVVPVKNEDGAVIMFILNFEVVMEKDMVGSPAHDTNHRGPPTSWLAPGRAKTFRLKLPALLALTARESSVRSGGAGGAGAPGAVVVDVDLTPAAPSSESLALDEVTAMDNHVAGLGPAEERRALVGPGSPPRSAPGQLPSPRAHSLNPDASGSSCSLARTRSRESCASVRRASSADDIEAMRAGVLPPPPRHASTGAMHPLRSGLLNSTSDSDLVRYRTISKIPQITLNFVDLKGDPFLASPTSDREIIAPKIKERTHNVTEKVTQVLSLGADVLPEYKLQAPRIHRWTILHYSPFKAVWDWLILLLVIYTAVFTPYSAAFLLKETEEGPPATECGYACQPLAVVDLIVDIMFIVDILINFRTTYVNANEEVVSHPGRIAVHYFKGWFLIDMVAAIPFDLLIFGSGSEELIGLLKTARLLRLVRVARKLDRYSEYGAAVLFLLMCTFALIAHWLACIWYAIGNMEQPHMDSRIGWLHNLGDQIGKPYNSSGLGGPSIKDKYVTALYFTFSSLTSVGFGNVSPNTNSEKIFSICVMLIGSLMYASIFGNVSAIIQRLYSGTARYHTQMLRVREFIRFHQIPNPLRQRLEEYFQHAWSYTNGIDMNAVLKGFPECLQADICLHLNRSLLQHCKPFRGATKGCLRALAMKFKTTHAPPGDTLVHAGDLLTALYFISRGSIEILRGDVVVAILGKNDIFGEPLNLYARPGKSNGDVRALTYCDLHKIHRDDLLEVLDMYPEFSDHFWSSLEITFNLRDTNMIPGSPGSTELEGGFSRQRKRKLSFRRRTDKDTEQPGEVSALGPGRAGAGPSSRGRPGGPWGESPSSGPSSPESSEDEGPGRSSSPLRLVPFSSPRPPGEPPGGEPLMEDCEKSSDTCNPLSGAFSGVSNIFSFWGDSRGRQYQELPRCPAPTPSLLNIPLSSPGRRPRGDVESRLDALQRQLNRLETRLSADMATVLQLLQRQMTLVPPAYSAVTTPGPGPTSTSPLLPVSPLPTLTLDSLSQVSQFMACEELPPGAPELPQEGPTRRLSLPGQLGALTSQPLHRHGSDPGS
T1 sequence (P48048 whole entry): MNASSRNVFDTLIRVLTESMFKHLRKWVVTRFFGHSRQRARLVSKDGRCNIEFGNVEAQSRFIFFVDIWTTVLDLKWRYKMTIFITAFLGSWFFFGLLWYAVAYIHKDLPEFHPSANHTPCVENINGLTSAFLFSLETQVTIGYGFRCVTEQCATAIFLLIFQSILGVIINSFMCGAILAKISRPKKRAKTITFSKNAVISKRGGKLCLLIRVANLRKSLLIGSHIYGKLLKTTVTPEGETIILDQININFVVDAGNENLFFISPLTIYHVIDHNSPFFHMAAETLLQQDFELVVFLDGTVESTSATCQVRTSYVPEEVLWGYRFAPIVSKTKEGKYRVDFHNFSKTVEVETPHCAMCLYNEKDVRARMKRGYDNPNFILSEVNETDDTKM

What is called IC50 is the concentration that gives 50% inhibition. As for `Cc1nccc(-n2cc(CN3C[C@@H](c4ccc5c(c4C)COC5=O)N[C@@H](C)C3)n(C)c2=O)n1` [Example 173-I, 3-methyl-4-(((3S,5R)-3-methyl-5-(4-methyl-1-oxo-1,3-dihdyroisobenzofuran-5-yl)piperazin-1-yl)methyl)-1-(2-methylpyrimidin-4-yl)-1,3-dihydro-2H-imidazol-2-one], the IC50 on hROMK (human Kir1.1) [1] turned out to be 55 nM; at hROMK (human Kir1.1) [2], 21 nM. The inhibition at 1 µM at hERG channels turned out to be 4%.

As to `Cc1cc(-n2ncc(CN3CCN[C@H](c4ccc5c(c4C)COC5=O)C3)n2)nc(C)c1C#N` [Example 184-I, (R)-2,4-dimethyl-6-(4-((3-(4-methyl-1-oxo-1,3-dihydroisobenzofuran-5-yl)piperazin-1-yl)methyl)-2H-1,2,3-triaozl-2-yl)nicotinonitrile], the results for the IC50 on hROMK (human Kir1.1) [1] and at hROMK (human Kir1.1) [2] were 30 nM and 10 nM, respectively. Further, the inhibition at 1 µM at hERG channels was determined as 6.1%.

`COc1cc(-n2cc(CN3CCN[C@H](c4ccc5c(c4C)COC5=O)C3)nn2)nc(C)c1C#N` [Example 187-I, (R)-4-methoxy-2-methyl-6-(4-((3-(4-methyl-1-oxo-1,3-dihydroisobenzofuran-5-yl)piperaizn-1-yl)methyl)-1H-1,2,3-triazol-1-yl)nicotinonitrile]: the results for the IC50 at hROMK (human Kir1.1) [1] and on hROMK (human Kir1.1) [2] were 43 nM and 25 nM, respectively. Moreover, the inhibition at 1 µM on hERG channels was found to be 11%.

For the compound `COc1cc(-n2ncc(CN3CCN[C@H](c4ccc5c(c4C)COC5=O)C3)n2)nc(C)c1C#N` [Example 188-I, (R)-4-methoxy-2-methyl-6-(4-((3-(4-methyl-1-oxo-1,3-dihydroisobenzofuran-5-yl)piperazin-1-yl)methyl)-2H-1,2,3-triazol-2-yl)nicotinonitrile], the IC50 at hROMK (human Kir1.1) [1] amounted to 37 nM; at hROMK (human Kir1.1) [2], 18 nM. In addition, the inhibition at 1 µM on hERG channels came out at 18%.

On to `COc1nc(-n2cc(CN3CCN[C@H](c4ccc5c(c4C)COC5=O)C3)nn2)cc(C)c1C#N` [Example 189-I, (R)-2-methoxy-4-methyl-6-(4-((3-(4-methyl-1-oxo-1,3-dihydroisobenzofuran-5-yl)piperazin-1-yl)methyl)-1H-1,2,3-triazol-1-yl)nicotinonitrile], for which the IC50 at hROMK (human Kir1.1) [1] is 25 nM; on hROMK (human Kir1.1) [2], 17 nM. The inhibition at 1 µM at hERG channels was found to be 8.9%.

As to `Cc1cc(-c2nnc(CN3C[C@@H](c4ccc5c(c4C)COC5=O)N[C@@H](C)C3)o2)ncc1C#N` [Example 191-I, 4-methyl-6-(5-(((3S,5R)-3-methyl-5-(4-methyl-1-oxo-1,3-dihydroisobenzofuran-5-yl)piperazin-1-yl)methyl)-1,3,4-oxadiazol-2-yl)nicotinonitrile], the IC50 at hROMK (human Kir1.1) [1] stood at 29 nM; at hROMK (human Kir1.1) [2], 21 nM. Besides, the inhibition at 1 µM at hERG channels was determined as 4.3%.

With `Cc1cc(-c2cc(CN3CC[C@@H](O)[C@H](c4ccc5c(c4C)COC5=O)C3)on2)ncc1C#N` [Example 193-I, 6-(5-(((3R,4R)-4-hydroxy-3-(4-methyl-1-oxo-1,3-dihydroisobenzofuran-5-yl)piperidin-1-yl)methyl)isoxazol-3-yl)-4-methylnicotinonitrile], the IC50 was 44 nM at hROMK (human Kir1.1) [1] and 20 nM on hROMK (human Kir1.1) [2]. Moreover, the inhibition at 1 µM on hERG channels was determined as 14%.

`Cc1cc(-n2cc(CN3C[C@H](CO)N(C)[C@H](c4ccc5c(c4C)COC5=O)C3)cn2)ncc1C#N` [Example 195-I, 6-(4-(((3R,5R)-3-(hydroxymethyl)-4-methyl-5-(4-methyl-1-oxo-1,3-dihydroisobenzofuran-5-yl)piperaizn-1-yl)methyl)-1H-pyrazol-1-yl)-4-methylnicotinonitrile]: the results for the IC50 on hROMK (human Kir1.1) [1] and at hROMK (human Kir1.1) [2] were 66 nM and 79 nM, respectively. Moreover, the inhibition at 1 µM on hERG channels was determined as 5.9%.

`COc1cc(-n2cc(CN3C[C@@H](c4ccc5c(c4C)COC5=O)N[C@@H](C)C3)cn2)ncn1` [Example 207-I, 5-((2R,6S)-4-((1-(6-methoxypyrimidin-4-yl)-1H-pyrazol-4-yl)methyl)-6-methylpiperazin-2-yl)-4-methylisobenzofuran-1(3H)-one]: the figures for the IC50 at hROMK (human Kir1.1) [1] and on hROMK (human Kir1.1) [2] were 53 nM and 18 nM, respectively. Also, on hERG channels, the inhibition at 1 µM came out at 10%.

On to `Cc1cc(-c2cc(CN3C[C@@H](c4ccc5c(c4C)COC5=O)N[C@@H](C)C3)no2)ncc1C#N` [Example 210-I, 4-methyl-6-(3-(((3S,5R)-3-methyl-5-(4-methyl-1-oxo-1,3-dihydroisobenzofuran-5-yl)piperazin-1-yl)methyl)isoxazol-5-yl)nicotinonitrile], for which the IC50 at hROMK (human Kir1.1) [1] is 41 nM; on hROMK (human Kir1.1) [2], 20 nM. Also, the inhibition at 1 µM on hERG channels was found to be 5.2%.

On to `Cc1cn(-c2ncc(CN3CCN[C@H](c4ccc5c(c4C)COC5=O)C3)cn2)cn1` [Example 216-I], for which the IC50 on hROMK (human Kir1.1) [1] turned out to be 25 nM; at hROMK (human Kir1.1) [2] it was 14 nM. Moreover, the inhibition at 1 µM on hERG channels was determined as 5.6%.

Take `Cc1nn(-c2ncc(CN3CCN[C@H](c4ccc5c(c4C)COC5=O)C3)cn2)cc1C#N` [Example 221-I, (R)-3-methyl-1-(5-((3-(4-methyl-1-oxo-1,3-dihydroisobenzofuran-5-yl)piperazin-1-yl)methyl)pyrimidin-2-yl)-1H-pyraozle-4-carbonitrile]: the IC50 is 22 nM at hROMK (human Kir1.1) [1] and 13 nM on hROMK (human Kir1.1) [2]. Besides, the inhibition at 1 µM at hERG channels amounted to 5.4%.

For `CCc1nn(-c2ncc(CN3CCN[C@H](c4ccc5c(c4C)COC5=O)C3)cn2)cc1C#N` [Example 228-I, (R)-3-ethyl-1-(5-((3-(4-methyl-1-oxo-1,3-dihydroisobenzofuran-5-yl)piperazin-1-yl)methyl)pyrimidin-2-yl)-1H-pyrazole-4-carbonitrile], the IC50 amounted to 14 nM at hROMK (human Kir1.1) [1] and 20 nM at hROMK (human Kir1.1) [2]. Moreover, the inhibition at 1 µM on hERG channels was found to be 16%.

For the compound `Cc1nc(-n2cc(CN3CCN[C@H](c4ccc5c(c4C)COC5=O)C3)cn2)ncc1C#N` [Example 230-I, (R)-4-methyl-2-(4-((3-(4-methyl-1-oxo-1,3-dihydroisobenzofuran-5-yl)piperazin-1-yl)methyl)-1H-pyrazol-1-yl)pyrimidine-5-carbonitrile], the IC50 was 32 nM on hROMK (human Kir1.1) [1] and 19 nM on hROMK (human Kir1.1) [2]. At hERG channels, the inhibition at 1 µM was 2.2%.

On to `Cc1cc(-n2cc(CN3CC(C)O[C@H](c4ccc5c(c4C)COC5=O)C3)cn2)ncc1C#N` (stereo partly drawn) [Example 240-I, 4-methyl-6-(4-(((6R)-2-methyl-6-(4-methyl-1-oxo-1,3-dihydroisobenzofuran-5-yl)morpholino)methyl)-1H-pyrazol-1-yl)nicotinonitrile], for which the IC50 at hROMK (human Kir1.1) [1] turned out to be 42 nM; on hROMK (human Kir1.1) [2], 34 nM. In addition, the inhibition at 1 µM at hERG channels came out at 8.3%.

Regarding `COc1cc(-n2cc(CN3CCN[C@H](c4ccc5c(c4C)COC5=O)C3)nn2)ncc1C#N` [Example 255-I, (R)-4-methoxy-6-(4-((3-(4-methyl-1-oxo-1,3-dihydroisobenzofuran-5-yl)piperazin-1-yl)methyl)-1H-1,2,3-triazol-1-yl)nicotinonitrile], the results for the IC50 on hROMK (human Kir1.1) [1] and on hROMK (human Kir1.1) [2] were 33 nM and 9.1 nM, respectively. Besides, the inhibition at 1 µM at hERG channels is 9.5%.
